Test [1] relates to U-937. Put plainly: Ability to mobilize Ca+2 in LTD4 dependent Ca+2 mobilization assay in differentiated human monocytic U-937 cells. Type of test: functional, cell-based.
Test [2] concerns Cavia porcellus. Nature of the test: In vivo activity was determined after oral administration for 1 hr in a guinea pig efficacy model for allergic airway obstruction. The format is functional.
The target of test [3] is T1, Cysteinyl leukotriene receptor 1 (Cavia porcellus, UniProt Q2NNR5).
T1 sequence (Q2NNR5 whole entry): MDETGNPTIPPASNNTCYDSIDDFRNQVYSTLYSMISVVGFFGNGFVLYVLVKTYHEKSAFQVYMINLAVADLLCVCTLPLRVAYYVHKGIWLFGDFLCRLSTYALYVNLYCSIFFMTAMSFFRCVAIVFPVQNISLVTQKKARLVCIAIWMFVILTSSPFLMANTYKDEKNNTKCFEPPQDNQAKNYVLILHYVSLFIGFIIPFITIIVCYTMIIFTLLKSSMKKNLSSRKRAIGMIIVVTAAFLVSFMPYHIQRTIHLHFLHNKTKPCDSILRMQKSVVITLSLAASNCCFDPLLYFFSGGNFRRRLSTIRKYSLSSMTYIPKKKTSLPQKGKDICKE
Put plainly: Binding affinity against leukotriene D4 receptor in [3H]LTD4 binding assay.

The test system of test [4] is Cavia porcellus. Nature of the test: In vivo activity was determined after oral administration for 2 hr in a guinea pig efficacy model for allergic airway obstruction. Type of test: functional.
For test [5], the system named is Cavia porcellus. Nature of the test: In vivo activity was determined after oral administration for 2 hrs in a guinea pig efficacy model for allergic airway obstruction. Type of test: functional.
Test [6] concerns Cavia porcellus. Put plainly: In vivo activity was determined after 1 mg/kg oral administration for 1 hr in a guinea pig efficacy model for allergic airway obstruction. The format is functional.
In test [7] the test system is Cavia porcellus. Nature of the test: In vivo activity was determined after 1 mg/kg oral administration for 2 hrs in a guinea pig efficacy model for allergic airway obstruction. The format is functional.

Each structure is given as a SMILES string.

As a reminder, the IC50 is the concentration that inhibits the measured activity by half. Higher therefore signals lower potency. One may read the Inhibition as the change of the read-out against control, counted positive when it falls. A lower Inhibition goes with a weak effect. As for `COc1cc(C(=O)NS(=O)(=O)c2ccccc2C)ccc1Cc1cn(C(=O)N2CCOCC2)c2ccc(NC(=O)OC3CCCC3)cc12`, the IC50 in test [1] came to 2 nM; in test [3], 0.4 nM. The molecule further registered an Inhibition in test [2] of 8%.
Usually ED50 stands for the midpoint of the dose-response relation. Low values mean an effect at a small dose, high ones a need for a large dose. `COc1cc(C(=O)NS(=O)(=O)c2ccccc2C)ccc1Cc1cn(C(=O)N(c2ccccc2)c2ccccc2)c2ccc(NC(=O)OC3CCCC3)cc12`: the concentration for half-maximal inhibition (IC50) in test [1] worked out at 0.4 nM; in test [3], 2 nM. For the same molecule, the ED50 in test [4] stood at 1.1 mg/kg.
In the case of `CCN(CC)C(=O)n1cc(Cc2ccc(C(=O)NS(=O)(=O)c3ccccc3C)cc2OC)c2cc(NC(=O)OC3CCCC3)ccc21`, the results for the IC50 in test [1] and in test [3] were 0.8 nM and 0.5 nM, respectively. In addition, the ED50 in test [2] came to 1.2 mg/kg.
`COc1cc(C(=O)NS(=O)(=O)c2ccccc2C)ccc1Cc1cn(C)c2ccc(NC(=O)OC3CCCC3)cc12` [ZAFIRLUKAST] came in with an IC50 in test [1] of 1 nM. The ED50 in test [5] was 0.9 mg/kg.
In general, inhibition in vivo refers to the change of the read-out against control, counted positive when it falls. The low end stands for a response near the control, the high end for a response far below the control. With `COc1cc(C(=O)NS(=O)(=O)c2ccccc2C)ccc1Cc1cn(C(=O)N(C)C)c2ccc(NC(=O)OC3CCCC3)cc12`, the IC50 in test [1] is 1 nM; in test [3], 0.4 nM. In addition, the inhibition in vivo at 1 mg/kg in test [6] is 39%.
For `COc1cc(C(=O)NS(=O)(=O)c2ccccc2C)ccc1Cc1cn(C(=O)N(C)c2ccccc2)c2ccc(NC(=O)OC3CCCC3)cc12`, the figures for the IC50 in test [1] and in test [3] were 0.2 nM and 0.4 nM, respectively. Further, the 50% effect level in test [4] (ED50) was put at a dose of 1.1 mg/kg.
On to `COc1cc(C(=O)NS(=O)(=O)c2ccccc2C)ccc1Cc1c[nH]c2ccc(NC(=O)OC3CCCC3)cc12` [N-DEALKYLATED DERIVATIVE], for which the results for the IC50 in test [1] and in test [3] were 2 nM and 1 nM, respectively. In test [6], this molecule had an inhibition in vivo at 1 mg/kg of 40%.
`COc1cc(C(=O)NS(=O)(=O)c2ccccc2C)ccc1Cc1cn(C=O)c2ccc(NC(=O)OC3CCCC3)cc12`: the IC50 worked out at 0.6 nM in test [1] and 1 nM in test [3]. The molecule further gave an ED50 in test [2] of 0.84 mg/kg.
The corresponding values for `COc1cc(C(=O)NS(=O)(=O)c2ccccc2C)ccc1Cc1cn(C(N)=O)c2ccc(NC(=O)OC3CCCC3)cc12` are 0.3 nM, 0.5 nM and 1.6 mg/kg.
Consider `COc1cc(C(=O)NS(=O)(=O)c2ccccc2C)ccc1Cc1cn(C(F)F)c2ccc(NC(=O)OC3CCCC3)cc12`, for which the inhibition in vivo at 1 mg/kg in test [7] was found to be 58%. Besides, the half-inhibitory concentration (IC50) in test [1] amounted to 0.4 nM; in test [3], 1 nM.
In the case of `COc1cc(C(=O)NS(=O)(=O)c2ccccc2C)ccc1Cc1cn(C(=O)NCCN(C)C)c2ccc(NC(=O)OC3CCCC3)cc12`, the half-inhibitory concentration (IC50) in test [1] was determined as 0.1 nM; in test [3], 0.5 nM. The same molecule came in with an Inhibition in test [2] of 34%.
For `COc1cc(C(=O)NS(=O)(=O)c2ccccc2C)ccc1Cc1cn(C(=O)NCCCc2ccccc2)c2ccc(NC(=O)OC3CCCC3)cc12`, the results for the IC50 in test [1] and in test [3] were 0.1 nM and 0.5 nM, respectively. Also, it took a dose of 1.6 mg/kg to reach the 50% effect level in test [2] (ED50).

The values above are taken from ChEMBL document CHEMBL1130956 (Bioorg Med Chem Lett, 1998).
